Measurements as given in patent US20120329739A1 (priority 2010, published 2012).

Assays:
melan-A melanocytes = type: cell-based
[1] = system: hair graying-induced mice (Mitf^mi-vit); details: mouse, in vivo

SMILES: O=c1c(-c2ccc(O)cc2)coc2c([C@@H]3O[C@H](CO)[C@@H](O)[C@H](O)[C@H]3O)c(O)ccc12 [puerarin, 8-C-β-D-glucopyranosyl-7-hydroxy-3-(4-hydroxyphenyl)-4H-1-benzopyran-4-one]
- concentration dependence of melanin synthesis promoting effect (melan-A melanocytes): concentration-dependent
- melanin content relative to the negative control group (melan-A melanocytes): the melanin content is higher than the negative control group
- concentration dependence of the effect on hair melanin content [1]: the effect increases as the concentration of puerarin increases
